Like-named read-outs stand apart in the source and are kept apart here.
Key:
[1] = molecular target: T1, EIF2AK3 (PERK) catalytic domain (amino acids 536-1116) (Homo sapiens, UniProt Q9NZJ5); experiment: PERK in vitro activity assay (isolated), TR-FRET kinase assay; type: biochemical; settings: isolated PERK enzyme, 1.5 μM ATP; read-out: Biochemical IC50
T1 construct: EIF2AK3 (PERK) catalytic domain (amino acids 536-1116)
T1 sequence (Q9NZJ5 536-1116): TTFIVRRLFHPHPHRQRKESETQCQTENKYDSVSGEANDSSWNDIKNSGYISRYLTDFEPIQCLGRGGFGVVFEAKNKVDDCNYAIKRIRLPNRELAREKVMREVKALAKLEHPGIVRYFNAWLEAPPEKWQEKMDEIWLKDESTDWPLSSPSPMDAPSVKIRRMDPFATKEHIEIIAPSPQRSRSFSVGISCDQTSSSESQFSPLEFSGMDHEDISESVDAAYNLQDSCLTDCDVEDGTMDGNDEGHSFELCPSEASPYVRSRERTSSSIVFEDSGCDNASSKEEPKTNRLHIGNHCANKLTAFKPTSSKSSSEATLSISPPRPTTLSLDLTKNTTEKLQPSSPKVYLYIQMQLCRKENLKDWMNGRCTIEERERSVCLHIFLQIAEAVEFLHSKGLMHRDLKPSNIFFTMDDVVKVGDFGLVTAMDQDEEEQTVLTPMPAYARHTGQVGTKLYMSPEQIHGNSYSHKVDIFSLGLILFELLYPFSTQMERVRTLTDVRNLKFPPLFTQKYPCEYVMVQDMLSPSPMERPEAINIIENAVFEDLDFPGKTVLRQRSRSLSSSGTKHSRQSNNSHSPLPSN
From the text: PERK In Vitro Activity Assay (Isolated):
In vitro Inhibition of PERK Enzyme Activity (isolated) Recombinant human EIF2AK2 (PKR) catalytic domain (amino acids 252-551), EIF2AK3 (PERK) catalytic domain (amino acids 536-1116), GFP-eIF2a substrate, and Terbium-labelled phospho-eIF2a antibody is obtained (Invitrogen, Carlsbad, Calif.).
Express and purify HIS-SUMO-GCN2 catalytic domain (amino acids 584-1019) from E. coli. Perform TR-FRET kinase assays in the absence or presence of inhibitors in a reaction buffer consisting of 50 mM HEPES, pH 7.5, 10 mM MgCb, 1.0 mM EGTA, and 0.01% Brij-35, and 100-200 nM GFP-eIF2a substrate. […] Add test compound, initiate the reaction by addition of enzyme, and incubate at room temperature for 45 minutes. Stop the reaction by addition of EDTA to a final concentration of 10 mM, add Terbium-labelled phospho-eIF2a antibody at a final concentration of 2 nM, and incubate for 90 minutes. Monitor the resulting fluorescence in an EnVison® Multilabel reader (PerkinElmer, Waltham, Mass.). Determine TR-FRET ratios and the resulting IC50 values using a 4-parameter nonlinear logistic equation as shown: Y=(A+((B−A)/(1+((C/x)[…])))) where, Y=% specific inhibition, A=Bottom of the curve, B=Top of the curve, C=absolute IC50 (concentration causing 50% inhibition), and D=hill slope.

[2] = system: GFP-eIF2α in HEK293 cells; experiment: PERK cellular assay, TR-FRET in HEK293-EGFP-eIF2a cells after tunicamycin-induced ER stress; type: cell-based; settings: HEK293-EGFP-eIF2a cells, tunicamycin 2 hours, read-out: Cellular eIF2α IC50
Description: Stable cell lines were created in HEK293 cells using lentiviral particles harboring an expression vector for GFP-eIF2α. Cells were selected using puromycin and enriched using fluorescence activated cell sorting against GFP. HEK293-EGFP-eIF2a cells were plated at 5000 cells/well in 384-well assay plates and incubated overnight at 37° C., 5% CO2. Inhibitor compounds were added to the wells by Echo acoustic dispensing and incubated for 30 minutes at 37° C., 5% CO2 prior to induction of ER stress by addition of tunicamycin to […] for 2 hours. Cells were lysed and TR-FRET was measured in an EnVision plate reader (PerkinElmer). FRET ratio data was normalized to signal from lysates treated with DMSO vehicle control and plotted as percent inhibition against 10-point; 3-fold dilution series of inhibitors. IC50 values were calculated using 4-parameter logistical fitting in XLFit.

| SMILES | IC50 [1] [nM] | IC50 ([2]; Homo sapiens, HEK293, 2 h) [nM] | IC50 [2] [nM] |
| --- | --- | --- | --- |
| Cc1cc(NC(=O)Cc2ccc(C(F)(F)F)cc2)ccc1-c1cn(C)c2ncnc(N)c12 [Example 159, N-(4-(4-amino-7-methyl-7H-pyrrolo[2,3-d]pyrimidin-5-yl)-3-methylphenyl)-2-(4-(trifluoromethyl)phenyl)acetamide] | 51 to 100 | 501 to 1000 |  |
| COC(C(=O)Nc1ccc(-c2cn(C)c3ncnc(N)c23)c(C)c1)c1ccccc1 (centres unmarked) [Example 8, N-(4-(4-amino-7-methyl-7H-pyrrolo[2,3-d]pyrimidin-5-yl)-3-methylphenyl)-2-methoxy-2-phenylacetamide] | 1 to 25 | 101 to 250 |  |
| Cc1cc(NC(=O)CC2CCCC2)ccc1-c1cn(C)c2ncnc(N)c12 [Example 165, N-(4-(4-amino-7-methyl-7H-pyrrolo[2,3-d]pyrimidin-5-yl)-3-methylphenyl)-2-cyclopentyl-acetamide] | 101 to 250 | 501 to 1000 |  |
| Cc1ccc(CC(=O)Nc2ccc(-c3cn(C)c4ncnc(N)c34)c(C)c2)cc1 [Example 144, N-(4-(4-amino-7-methyl-7H-pyrrolo[2,3-d]pyrimidin-5-yl)-3-methylphenyl)-2-(p-tolyl)acetamide] | 1 to 25 | 101 to 250 |  |
| Cc1cccc(C(O)C(=O)Nc2ccc(-c3cn(C)c4ncnc(N)c34)c(C)c2)n1 (centres unmarked) [Example 60, N-(4-(4-amino-7-methyl-7H-pyrrolo[2,3-d]pyrimidin-5-yl)-3-methylphenyl)-2-hydroxy-2-(6-methylpyridin-2-yl)acetamide] | 1 to 25 | 101 to 250 |  |
| Cc1nc(N)c2c(-c3ccc(NC(=O)C(O)c4cc(F)cc(F)c4)cc3F)cn(C)c2n1 (centres unmarked) [Example 84, N-(4-(4-amino-2,7-dimethyl-7H-pyrrolo[2,3-d]pyrimidin-5-yl)-3-fluorophenyl)-2-(3,5-difluorophenyl)-2-hydroxyacetamide] | 51 to 100 |  | 101 to 250 |
| Cc1cc(NC(=O)Cc2cccc(Cl)c2)ccc1-c1cn(C)c2ncnc(N)c12 [Example 150, N-(4-(4-amino-7-methyl-7H-pyrrolo[2,3-d]pyrimidin-5-yl)-3-methylphenyl)-2-(3-chlorophenyl)acetamide] | 1 to 25 | 26 to 50 |  |
| Cc1nc(N)c2c(-c3ccc(NC(=O)C(O)c4cccc(C(F)(F)F)c4)cc3Cl)cn(C)c2n1 (centres unmarked) [Example 101, N-(4-(4-amino-2,7-dimethyl-7H-pyrrolo[2,3-d]pyrimidin-5-yl)-3-chlorophenyl)-2-hydroxy-2-(3-(trifluoromethyl)phenyl)acetamide] | 1 to 25 |  | 1 to 25 |
| Cc1nc(N)c2c(-c3ccc(NC(=O)C(O)c4cccc(F)c4)cc3OC(F)(F)F)cn(C)c2n1 (single isomer, unassigned) [Example 21, N-(4-(4-amino-2,7-dimethyl-7H-pyrrolo[2,3-d]pyrimidin-5-yl)-3-(trifluoromethoxy)phenyl)-2-(3-fluorophenyl)-2-hydroxyacetamide] | 1 to 25 |  | 501 to 1000 |
| Cc1cc(NC(=O)Cc2cccc(C)c2C)ccc1-c1cn(C)c2ncnc(N)c12 [Example 162, N-(4-(4-amino-7-methyl-7H-pyrrolo[2,3-d]pyrimidin-5-yl)-3-methylphenyl)-2-(2,3-dimethylphenyl)acetamide] | 1 to 25 | 51 to 100 |  |
| COc1ccc(CC(=O)Nc2ccc(-c3cn(C)c4ncnc(N)c34)c(C)c2)cc1 [Example 141, N-(4-(4-amino-7-methyl-7H-pyrrolo[2,3-d]pyrimidin-5-yl)-3-methylphenyl)-2-(4-methoxyphenyl)acetamide] | 51 to 100 | 251 to 500 |  |
| Cc1nc(N)c2c(-c3c(C)cc(NC(=O)C(O)c4cccc(F)c4)cc3F)cn(C)c2n1 (centres unmarked) [Example 125, N-(4-(4-amino-2,7-dimethyl-7H-pyrrolo[2,3-d]pyrimidin-5-yl)-3-fluoro-5-methylphenyl)-2-(3-fluorophenyl)-2-hydroxyacetamide] | 1 to 25 | 51 to 100 |  |
| Cc1cc(NC(=O)C(O)c2cccc(C(F)(F)F)c2)ccc1-c1cn(C)c2ncnc(N)c12 (centres unmarked) [Example 48, N-(4-(4-amino-7-methyl-7H-pyrrolo[2,3-d]pyrimidin-5-yl)-3-methylphenyl)-2-hydroxy-2-(3-(trifluoromethyl)phenyl)acetamide] | 1 to 25 |  | 51 to 100 |
| Cc1cc(NC(=O)C(O)c2cccc(Cl)c2)ccc1-c1cn(C)c2ncnc(N)c12 (centres unmarked) [Example 35, N-(4-(4-amino-7-methyl-7H-pyrrolo[2,3-d]pyrimidin-5-yl)-3-methylphenyl)-2-(3-chlorophenyl)-2-hydroxyacetamide] | 1 to 25 | 1 to 25 |  |
| Cn1cc(-c2ccc(NC(=O)C(O)c3cccc(F)c3)cc2F)c2c(N)ncnc21 (single isomer, unassigned) [Example 3, N-(4-(4-amino-7-methyl-7H-pyrrolo[2,3-d]pyrimidin-5-yl)-3-fluorophenyl)-2-(3-fluorophenyl)-2-hydroxyacetamide] | 1 to 25 |  | 26 to 50 |
| COc1cccc(CC(=O)Nc2ccc(-c3cn(C)c4ncnc(N)c34)c(C)c2)c1 [Example 139, N-(4-(4-amino-7-methyl-7H-pyrrolo[2,3-d]pyrimidin-5-yl)-3-methylphenyl)-2-(3-methoxyphenyl)acetamide] | 26 to 50 | 251 to 500 |  |
| Cc1cc(NC(=O)C(O)c2cccc(F)c2)ccc1-c1cn(C)c2nc(C(C)C)nc(N)c12 (centres unmarked) [Example 25, N-(4-(4-amino-2-isopropyl-7-methyl-7H-pyrrolo[2,3-d]pyrimidin-5-yl)-3-methylphenyl)-2-(3-fluorophenyl)-2-hydroxyacetamide] | 101 to 250 | > 5000 |  |
| Cc1cccc(C(O)C(=O)Nc2ccc(-c3cn(C)c4nc(C)nc(N)c34)c(C)c2)c1 (centres unmarked) [Example 42, N-(4-(4-amino-2,7-dimethyl-7H-pyrrolo[2,3-d]pyrimidin-5-yl)-3-methylphenyl)-2-hydroxy-2-(m-tolyl)acetamide] | 1 to 25 | 51 to 100 |  |
| Cc1nc(N)c2c(-c3ccc(NC(=O)C(O)c4cccc5cnn(C)c45)cc3C)cn(C)c2n1 (single isomer, unassigned) [Example 65, N-(4-(4-amino-2,7-dimethyl-7H-pyrrolo[2,3-d]pyrimidin-5-yl)-3-methylphenyl)-2-hydroxy-2-(1-methyl-1H-indazol-7-yl)acetamide] | 251 to 500 |  | 3000 to 4000 |
| Cc1nc(N)c2c(-c3ccc(NC(=O)C(O)c4cccc(F)c4)cc3C)cn(C)c2n1 (single isomer, unassigned) [Example 2, N-(4-(4-amino-2,7-dimethyl-7H-pyrrolo[2,3-d]pyrimidin-5-yl)-3-methylphenyl)-2-(3-fluorophenyl)-2-hydroxyacetamide] | 51 to 100 |  | 251 to 500 |
| Cc1cccc(C(O)C(=O)Nc2ccc(-c3cn(C)c4nc(C)nc(N)c34)c(Cl)c2)c1 (centres unmarked) [Example 96, N-(4-(4-amino-2,7-dimethyl-7H-pyrrolo[2,3-d]pyrimidin-5-yl)-3-chlorophenyl)-2-hydroxy-2-(m-tolyl)acetamide] | 1 to 25 |  | 1 to 25 |
| Cc1nc(N)c2c(-c3ccc(NC(=O)C(O)c4cccc(Cl)c4)cc3Cl)cn(C)c2n1 (centres unmarked) [Example 99, N-(4-(4-amino-2,7-dimethyl-7H-pyrrolo[2,3-d]pyrimidin-5-yl)-3-chlorophenyl)-2-(3-chlorophenyl)-2-hydroxyacetamide] | 1 to 25 |  | 1 to 25 |

— patent publication US20220356186A1, “PERK INHIBITING PYRROLOPYRIMIDINE COMPOUNDS” (HiberCell, Inc., priority 2019, published 2022)
